Measured values as given in patent US11352391B2, “Compositions for inducing urinary voiding and defecation” (Dignify Therapeutics, LLC, priority 2017, dated 2022).
pEC50, pKi: −log10 of the molar value. Where a SMILES comes first, the peptide text is derived from it.

Legend:
[1] = Pharmacokinetics in rat plasma after cassette IV bolus dosing; settings: Sprague-Dawley, in vivo, iv
Protocol: The concentrations of compounds (SEQ ID NOS: 1-11) were measured in rat plasma after intravenous (IV) bolus dosing to determine pharmacokinetic profiles of individual compounds.
Animal preparation: In vivo studies were performed in anesthetized adult Sprague Dawley rats. Rats were anesthetized with urethane (1.2-1.4 g/kg subcutaneous injection). Surgical procedures were then performed with the addition of isoflurane anesthesia (0.05-1.5% in 02) as needed. A venous cannula was inserted into the jugular vein for intravenous (IV) administration of compounds.
In vivo dosing and plasma sampling: Compounds were divided into two groups (soluble and insoluble). Each group was dosed as a cassette in which four compounds (100 μg/kg each compound) were combined into a single IV bolus injection to anesthetized adult Sprague-Dawley rats. Soluble compounds were dissolved in saline. Insoluble compounds were dissolved in a 10% ethanol/saline solution. Rats were cassette dosed based on weight using 0.1 mg/mL solutions of individual compounds. Blood samples (700 μL) were collected using a carotid artery cannula into EDTA tubes containing ascorbic acid (final concentration 1%), and plasma was isolated.
Bioanalytical assay: A reversed-phase HPLC with Turbo Ion Spray MS/MS detection method was developed for bioanalysis. Mass spec transition and settings were individually optimized for each compound and then compounds were cassetted for HPLC method development and optimization. [^13C9; ^15N] [Lys5,MeLeu9,Nle10]-NKA(4-10) was used as an internal standard (IS). Analyte-to-IS peak area ratios for individual compounds were used to create linear calibration curves (1-20 ng/mL) using 1/×2 weighted least-squares regression analysis for evaluation of method linearity, precision and accuracy. For plasma concentration measurements, plasma samples were spiked with IS, processed by extraction, and analyzed using LC-MS/MS. Positive (M+H)+ ions for individual compounds and IS were monitored in MRM mode.

[2] = Saline solubility of heptapeptides; assay type: physicochemical
Protocol: Heptapeptides A-K shown below in Table 1 (SEQ ID NOs: 1-11) were synthesized according to standard Fmoc-mediated solid-phase techniques and purified under typical C18 reverse-phase conditions.
Compounds D-K were considered to be insoluble in saline (<1 mg/mL).

[3] = target: human NK1 Receptor (hNK1R) (Homo sapiens, UniProt P25103); assay: [3H]-septide radioligand competition binding to human recombinant NK1Rs (CHO-hNK1 membranes); settings: displacement of 5.0 nM [3H]-septide, CHO-hNK1 membranes; read-out: hNK1 binding Ki
Chain of human NK1 Receptor (hNK1R) (P25103 whole entry): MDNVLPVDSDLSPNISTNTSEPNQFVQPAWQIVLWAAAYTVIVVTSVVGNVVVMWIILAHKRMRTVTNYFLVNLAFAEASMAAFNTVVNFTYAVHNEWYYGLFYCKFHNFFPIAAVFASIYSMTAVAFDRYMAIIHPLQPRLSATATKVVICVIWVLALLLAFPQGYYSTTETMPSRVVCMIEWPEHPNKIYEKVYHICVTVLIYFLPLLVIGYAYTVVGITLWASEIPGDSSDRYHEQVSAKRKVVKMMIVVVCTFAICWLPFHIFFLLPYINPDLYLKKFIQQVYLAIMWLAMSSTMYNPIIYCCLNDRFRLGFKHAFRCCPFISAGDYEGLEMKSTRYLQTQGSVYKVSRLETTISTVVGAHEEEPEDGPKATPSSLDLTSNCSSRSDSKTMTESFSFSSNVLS
Protocol: (§1) After removal of the supernatant the cell pellet was washed and collected by re-suspension in PBS and centrifugation.
(§2) Frozen pellets were thawed and homogenized in 10 volumes (w/v) of membrane preparation buffer (50 mM HEPES pH 7.4, 1 mM EDTA, 50 μg/mL bacitracin and protease inhibitors) using a Polytron Ultraturrax (twice for 15 s per cycle). […] Protein concentration was determined using BioRad Protein Assay (Milan, Italy) with a BSA standard curve.

anesthetized dog = assay: Colorectal pressure manometry in anesthetized dog; assay type: in vivo
Protocol: Animal preparation: Naïve beagle dogs were fasted for 12-24 hours and received a warm water enema the night prior to, and the morning of, the experiment to clear the rectum and lower colon of feces. The day of the experiment, a 20 gauge IV catheter (Terumo Surflo) was placed in the cephalic vein for anesthetic induction (propofol, 10 mg/kg; IV) and delivery of IV fluids (5-10 ml/kg/hr) and compounds. The sedated dog was intubated with a 5-6 Fr tracheal tube and was maintained on 2-3% isoflurane via a ventilator (15-25 breaths/min; tidal volume […]) for the remainder of the experiment.
Bowel contractility: For colorectal pressure manometry, an ˜3 inch balloon catheter was inserted into the rectum and secured to the tail with tape. This catheter was connected via a three-way stopcock to a pressure transducer (UTAH MEDICAL PRODUCTS; DelTran II) for pressure recording. Data were recorded using PowerLab/8SP acquisition system using LabChart software (version 7.3.7; ADINSTRUMENTS, Australia). Arterial pressure, ECG, temperature and blood oxygen saturation (spO2) were monitored throughout the experiment (MEDTRONIC LIFEPAK12). Dogs were recovered in a quiet room under veterinary supervision.

[4] = target: T1, recombinant hNK2R expressed in CHO cells (Homo sapiens, UniProt P21452); assay: Intracellular calcium mobilization (FLIPR) in CHO-hNK2 cells; assay type: cell-based
T1 sequence (P21452 1-398): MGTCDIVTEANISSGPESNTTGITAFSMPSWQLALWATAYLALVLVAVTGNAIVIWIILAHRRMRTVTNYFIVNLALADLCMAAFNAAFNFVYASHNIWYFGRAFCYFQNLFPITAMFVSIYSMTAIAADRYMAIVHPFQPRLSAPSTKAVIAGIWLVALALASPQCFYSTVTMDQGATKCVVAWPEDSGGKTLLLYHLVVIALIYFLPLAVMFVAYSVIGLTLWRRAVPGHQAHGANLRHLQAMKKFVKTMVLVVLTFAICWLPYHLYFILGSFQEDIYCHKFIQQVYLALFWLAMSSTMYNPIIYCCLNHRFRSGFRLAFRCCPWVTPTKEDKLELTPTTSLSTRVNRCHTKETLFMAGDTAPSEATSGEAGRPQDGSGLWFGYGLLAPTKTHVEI
Protocol: (§3) CHO-hNK1 and CHO-hNK2 cells were seeded into black walled clear-bottom 384-well plates) at a density of 10,000 and 15,000 cells per well in 50 μL culture media, respectively, and grown overnight at 37° C. in a humidified CO2-incubator. Cells were washed in washing buffer using the EMBLA 384 instrument, leaving 20 μL of buffer per well after the final aspiration. Cells were then incubated at 37° C. with the cytoplasmic Ca2+ indicator Fluo-4 AM (final concentration 1 μM) in assay buffer (20 mM HEPES, 145 mM NaCl, 5 mM KCl, 5.5 mM glucose, 1 mM MgCl2 and 2 mM CaCl2, pH 7.4, 0.05% Pluronic F-127 and 0.1% BSA) containing 2.5 mM probenecid for […] (cell loading). Cells were then washed 3 times in washing buffer (20 mM HEPES, 145 mM NaCl, 5 mM KCl, 5.5 mM glucose, 1 mM MgCl2 and 2 mM CaCl2, pH 7.4 and 2.5 mM probenecid) using the EMBLA 384 instrument, leaving 30 μL of buffer in each well after the last wash. Loaded cell plates were transferred to the FLIPR machine and calcium responses were monitored as described below. A dual read-out FLIPR protocol was used, allowing for characterization of both agonist and antagonist profiles. For quality control, in each compound plate the signal was monitored by evaluating the responses to the reference standards (NKA and Substance P).
(§4) Concentration response curves of compounds were run in duplicate on two different occasions from the same stock solutions. Test solutions were prepared from 10 mM stock solutions in DMSO and 1 μL of each solution was stamped into V-bottom assay plates containing 49 μL assay buffer. The final concentration of DMSO was 0.5% in each well.

[5] = target: recombinant hNK1R expressed in CHO cells (Homo sapiens, UniProt P25103); assay: Intracellular calcium mobilization (FLIPR) in CHO-hNK1 cells; assay type: cell-based; settings: calcium mobilization, CHO-hNK1 cells; read-out: hNK1 EC50
Chain of recombinant hNK1R expressed in CHO cells (P25103 whole entry): as the sequence (P25103 whole entry) above
Protocol: as §3, §4

[6] = target: T2, human NK2 Receptor (hNK2R) (Homo sapiens, UniProt P21452); assay: [125I]-NKA radioligand competition binding to human recombinant NK2Rs (CHO-hNK2 membranes)
T2 sequence (P21452 1-398): T1 sequence (P21452 1-398)
Protocol: as §1, §2

- half-life [1]: 3.3 to 4.7 min
- solubility [2]: < 1000 µg/mL
- pKi [3]: 5.51
- pEC50 ([4]; calcium mobilization, CHO-hNK2 cells, read-out: hNK2 EC50): 8.52
- hNK2 selectivity ratio ([4]; ratio of EC50s hNK1R/hNK2R): 26
- pEC50 [5]: 7.11
- pKi ([6]; displacement of 0.1 nM [125I]-NKA, CHO-hNK2 membranes, read-out: hNK2 binding Ki): 7.79
- hNK2 selectivity ratio ([6]; ratio of Kis hNK1R/hNK2R): 188.58
Structure (SMILES): CCCC[C@H](NC(=O)[C@H](CC(C)C)NC(=O)CCNC(=O)[C@@H](NC(=O)[C@H](Cc1ccccc1)NC(=O)[C@H](CCCCN)NC(=O)[C@@H](N)CC(=O)O)C(C)C)C(N)=O [Compound G, Asp-Lys-Phe-Val-(β-Ala)-Leu-Nle-NH2] (HELM PEPTIDE1{D.K.F.V.[bAla].L.[Nle].[am]}$$$$V2.0; N-terminus assumed)
- duration of colorectal pressure response (anesthetized dog; IV bolus (B and E 3 μg/kg; G 3, 30 and 66 ug/kg)): approximately 5 minutes
- onset of increase in colorectal pressure (anesthetized dog; IV bolus (E 3 μg/kg; G 3, 30 and 66 ug/kg)): ≤ 1 min
